Data published in patent US6031135A, “Trimethylsphingosine derivatives” (Oncomembrane, Inc., priority 1996, dated 2000).
“Also recorded” adds a separate entry of the source.

What was measured:
[1] = tested on: neutrophils; assay: fMLP-enhanced 32P incorporation into PI, PIP and PIP2 in neutrophils; assay type: cell-based, human; conditions: fMLP 1 μM; pre-incubation of neutrophils
Method: Metabolic incorporation of [^32 P]sodium phosphate (4 mCi) into phosphatidylinositol (PI), phosphatidylinositol-4-phosphate (PIP) and phosphatidylinositol-4,5-bis-diphosphate (PIP2) is enhanced by chemotactic peptide fMLP (1 μM).

[2] = tested on: 47 kDa and 65 kDa proteins; assay: PMA-stimulated protein phosphorylation in 32P-labeled neutrophils; assay type: cell-based, human; conditions: neutrophils pre-incubated with 15-45 μM, then 1.5 μM PMA
Method: Excess unbound components were removed by centrifugation and the pellets were resuspended in the same buffer, repeating twice. The cells then were divided into 7 treatment groups, each containing ≈1×10^7 cells in a total volume of 0.4 ml. TMS, SPN or DMS was added to a suspension and incubated at 37° C. for 10 min, followed by addition of PMA to a final concentration of 1.5 μM. Two minutes later, the reaction was terminated by adding 0.1 ml of Laemmli sample buffer and 20 mM EDTA, followed by heating at 100° C. for 5 min. Aliquots were separated through 10% sodium dodecyl sulfate gels using known procedures. ^32 P incorporation was visualized by autoradiography.

[3] = tested on: 40 kD (or 47 kD) platelet protein; assay: phosphorylation of platelet protein on thrombin stimulation; assay type: cell-based
Text: On thrombin stimulation, a 40 kD (or 47 kD) platelet protein is phosphorylated. […] While not wanting to be bound by their statement, the inventors believe that absence of phosphorylated 40 kD (or 47 kD) protein prevents platelet aggregation.

[4] = tested on: B16BL6 melanoma cells; assay: metastasis of B16BL6 melanoma cells (lung metastatic deposits in mice); assay type: in vivo, mouse; conditions: BL6 cells injected into mice; irrespective of route or timing
Method: BL6 cells were injected into mice and metastatic deposits in the lung were assessed after various treatments including route and timing, of administration.

[5] = tested on: neutrophils; assay: neutrophil trans-endothelial migration through HUVEC monolayer; assay type: cell-based, human; conditions: IL-1β-activated EC's; pre-treatment of neutrophils
Method: A characteristic of neutrophils is the ability to adhere to activated EC's and to migrate through the EC monolayer into the vascular or extravascular matrix. The effect of TMS on neutrophil interactions with EC's and their subsequent trans-endothelial migration thereof can be monitored in vitro using human umbilical endothelial cells (HUVEC's) (Luscinskas et al., J. Imm., 146, 1617, 1991). Neutrophils are added to a HUVEC monolayer and neutrophil-HUVEC interactions are assessed microscopically following fixation, embedding and staining of monolayer sections.
Under physiological conditions, neutrophils are able to migrate into the collagenous matrix through the EC monolayer. When EC's are activated with IL-1β in M199 medium for 4 hours, neutrophils migrate into the collagenous matrix within 90 minutes.

[6] = tested on: F1 cells; assay: tritiated thymidine incorporation, cell growth; assay type: cell-based, mouse; conditions: F1 cells in vitro
Method: (§1) An in vitro assay relying on tritiated thymidine incorporation can be used to ascertain the effect of various compounds on cell proliferation. Briefly, tumor cells are seeded in flat bottom 96 well plates (Corning, N.Y.) at a concentration of 2×10^4 cells per well. The cells were cultured for 2 days in DMEM containing various concentrations of sphingoid which was added as a PBS solution. The medium then was supplemented with tritiated thymidine at a concentration of 0.5 μCi per well. Following a six hour incubation the cells were collected using the PHD Cell Harvester (Cambridge Technology, Cambridge, Mass.) and amounts of incorporated radioactivity were determined after adding a suitable cell lysing agent and scintillation cocktail, such as ScintiVerse BD (Fisher Scientific, Fairlawn, Calif.) which performs both functions.
(§2) Certain cancer cells show a higher metastatic potential and invasive capability than others. For example, in the mouse, the BL6 and F10 melanoma cell lines are highly metastatic and invasive. On the other hand, the F1 variant is much less metastatic and invasive (I. R. Hart et al., Amer. J. Pathol., 97, 587-592 (1979); G. Poote et al., Cancer Res. 42, 2770-2778 (1982); F1 and F10 clones from ATCC CRL 6323, and CRL 6475, respectively). BL6 and F1 cells were tested in vitro as described above. […]

[7] = tested on: BL6 cells; assay: tritiated thymidine incorporation, cell growth; assay type: cell-based, mouse; conditions: BL6 cells in vitro
Method: as §1, §2

[8] = tested on: neutrophils; assay: PMA-dependent O2 consumption of neutrophils; assay type: cell-based, human
[9] = tested on: neutrophils; assay: phagokinetic activity of neutrophils on gold sol-coated plates; assay type: cell-based, human
Text: The phagokinetic activity of neutrophils on gold sol-coated plates can be determined by a technique essentially as taught in Albrecht-Buehler (Cell, 11, 395, 1977). […] The TMS-dependent inhibitory effect is reversed completely when the culture medium is replaced with TMS-free medium. Thus, the inhibitory effect of TMS on phagokinetic activity is not dependent on cytotoxicity.

[10] = water solubility; assay type: physicochemical; conditions: particularly at physiologic pH
[11] = tested on: erythrocyte; assay: erythrocyte metabolic activity under blood storage conditions; assay type: cell-based; conditions: in vitro, normal blood storage conditions; reduction of erythrocyte enzyme activity
Text: Similar results can be expected for leukocytes and platelets.

[12] = tested on: HL60 cells; assay: HL60 adhesion on activated platelet-coated solid phase; assay type: cell-based, human; conditions: thrombin-stimulated and PMA-stimulated platelets
Method: HL60 (a human promylelocytic cell line available from the ATCC under accession number CCL 240) adhesion on resting or activated platelet-coatedsolid phase was evaluated as follows. Each well of a 48-well plate (Costar Scientific, Cambridge, Mass.) was filled with a poly-L-lysine solution (100 μg/ml in PBS) and incubated for 1 hour. Each well then was washed with PBS and then 150 μl of PBS containing 6×10^7 resting or activated platelets were added to each well and the plate was incubated for 1 hour. Plates were centrifuged (300×g for 7 minutes) and incubated a further 30 minutes at room temperature. Bound platelets were fixed by addition of 0.1% (w/v) glutaraldehyde in PBS for 2 minutes at 4° C. Each well was washed with 10 mM glycine in PBS and plates were incubated with 5% (w/v) BSA containing 0.1% (w/v) sodium azide, 10 mM glycine in PBS for 1 hour at room temperature.

With CCCCCCCCCCCCC/C=C/C(O)C(CO)[N+](C)(C)C (stereo not drawn) [TMS, N,N,N-trimethylsphingosine] the “fMLP-dependent enhancement of 32P incorporation into PI, PIP and PIP2” value [1] was “suppressed strongly”, the “phosphorylation of 47 kDa and 65 kDa proteins” value [2] was “diminished significantly; also recorded: had an affect on phosphorylation” and the “phosphorylation of the 40 kD (or 47 kD) platelet protein” value [3] was “inhibits phosphorylation”. For the same molecule, the “lung colonization and tumor development” value [4] was “effective in suppressing”, the Neutrophil migration [5] was “inhibited strongly” and the inhibiting cell growth [6] was “more effective than DMS and sphingosine”. The inhibiting cell growth [7] was “more effective than DMS and sphingosine”, the “PMA-dependent enhancement of O2 consumption” value [8] was “inhibited strongly” and the Phagokinetic activity [9] was “suppressed significantly”. The water solubility [10] was “highly water soluble”, the erythrocyte metabolic activity [11] was “retards erythrocyte metabolic activity” and the HL60 cell binding [12] was “inhibited strongly”.
